{"source": "patent US20260053811A1", "about": "“METHODS OF TREATING HYPERTENSION IN OBESE SUBJECTS” (Mineralys Therapeutics, Inc., priority 2022, published 2026)", "tested_on": "hypertensive subjects", "assay": "24-hour ambulatory blood pressure monitoring (ABPM), incl. nighttime dip", "format": "in vivo, human", "settings": "Part 1; for LSM Δ with Placebo, 24-hr DBP (ABPM, ANCOVA) / LSM Δ with Placebo, 24-hr Mean MAP (ABPM, ANCOVA) / LSM Δ with Placebo, 24-hr SBP (ABPM, ANCOVA) / LSM Δ with Placebo, Daytime Mean DBP (ABPM, ANCOVA) / LSM Δ with Placebo, Daytime Mean SBP (ABPM, ANCOVA) / LSM Δ with Placebo, Mean Central DBP (ABPM, ANCOVA) / LSM Δ with Placebo, Mean Central Mean BP (ABPM, ANCOVA) / LSM Δ with Placebo, Mean Central SBP (ABPM, ANCOVA) / LSM Δ with Placebo, Nighttime Mean DBP (ABPM, ANCOVA) / LSM Δ with Placebo, Nighttime Mean SBP (ABPM, ANCOVA): End of Treatment, FAS post-hoc", "experimental": "Ambulatory blood pressure monitoring was accomplished with an ambulatory blood pressure monitoring device that consists of a blood pressure cuff worn on a subject's arm attached to a small recording device that is typically attached to the subject's belt or waistband.\nThe ABPM device is worn for 24 hours. Throughout that period, the device records the subject's blood pressure at regular intervals, during the subject's routine daily activities and while they are sleeping. The ABPM thus provides a complete record of the subject's blood pressure over a 24-hour period.\n24-hour ABPM was measured in the clinic at baseline and Study Week 7. If, for any reason, the ABPM procedure was deemed a failure at the end of Study Week 7, it may have been repeated at Study Week 8 and therefore no imputation was employed regardless of use of rescue medications. Additionally, ABPM was also collected at the end of Study Week 4 in Part 2. If a repeat test was performed, it supersedes the original test results for that visit.\nSpecific derived variables based on ABPM measurements include mean 24-hour, mean Daytime, and mean Nighttime of SBP, DBP, and heart rate.\nChange from baseline to Week 7 in 24-hour mean SBP (and DBP) based on ABPM will be analyzed using an ANCOVA with a term for treatment group and a baseline mean 24-hour value as a covariate.\nThe nighttime dip is defined as\n100%×(mean daytime SBP−mean nighttime SBP)/mean daytime SBP\nIt is expressed as a percentage and is summarized by treatment group and visit using descriptive statistics. In addition, the number and percentage of subjects with nighttime dip in each of the dipper categories (Bloomfield & Park, 2015) is presented by treatment group and visit. The categories are: • (a) <10% • (b) 10-20% inclusive • (c) >20%\nSecondary endpoints of this study were: • (a) Change in 24-hour ambulatory blood pressure monitoring (ABPM) parameters (systolic and diastolic) from baseline to the end of Study Week 7. • (b) Change in office-measured SBP from baseline to the end of Study Weeks 1, 2, 3, 4, 5, 6, and 7. • (c) Change in office-measured diastolic blood pressure (DBP) from baseline to the end of Study Weeks 1, 2, 3, 4, 5, 6, 7, and 8. • (d) Proportion of subjects who achieve office-measured BP of ≤130/80 mm Hg by the end of Study Week 8.", "data": [{"molecule": "CC(=O)N[C@H]1CC[C@H](NC(=O)CN2CCN(c3nncc(-c4ccc(C)cc4)n3)CC2)CC1", "note": "[Compound A HBr]", "values": [{"measurement": "LSM Δ with Placebo, 24-hr DBP (ABPM, ANCOVA)", "setting": "12.5 mg BID", "value": "−4.24", "unit": "mmHg"}, {"measurement": "LSM Δ with Placebo, 24-hr Mean MAP (ABPM, ANCOVA)", "setting": "12.5 mg BID", "value": "−4.58", "unit": "mmHg"}, {"measurement": "LSM Δ with Placebo, 24-hr SBP (ABPM, ANCOVA)", "setting": "12.5 mg BID", "value": "−4.76", "unit": "mmHg"}, {"measurement": "LSM Δ with Placebo, Daytime Mean DBP (ABPM, ANCOVA)", "setting": "12.5 mg BID", "value": "−4.19", "unit": "mmHg"}, {"measurement": "LSM Δ with Placebo, Daytime Mean SBP (ABPM, ANCOVA)", "setting": "12.5 mg BID", "value": "−4.96", "unit": "mmHg"}, {"measurement": "LSM Δ with Placebo, Mean Central DBP (ABPM, ANCOVA)", "setting": "12.5 mg BID", "value": "−4.85", "unit": "mmHg"}, {"measurement": "LSM Δ with Placebo, Mean Central Mean BP (ABPM, ANCOVA)", "setting": "12.5 mg BID", "value": "−6.08", "unit": "mmHg"}, {"measurement": "LSM Δ with Placebo, Mean Central SBP (ABPM, ANCOVA)", "setting": "12.5 mg BID", "value": "−7.19", "unit": "mmHg"}, {"measurement": "LSM Δ with Placebo, Nighttime Mean DBP (ABPM, ANCOVA)", "setting": "12.5 mg BID", "value": "−3.92", "unit": "mmHg"}, {"measurement": "LSM Δ with Placebo, Nighttime Mean SBP (ABPM, ANCOVA)", "setting": "12.5 mg BID", "value": "−3.9", "unit": "mmHg"}, {"measurement": "24-hr Mean DBP (ABPM), Mean (SD)", "setting": "12.5 mg BID, EoT, FAS", "value": "77.63 (11.03) mmHg"}, {"measurement": "24-hr Mean MAP (ABPM), Mean (SD)", "setting": "12.5 mg BID, EoT, FAS", "value": "105.41 (12.62) mmHg"}, {"measurement": "24-hr Mean SBP (ABPM), Mean (SD)", "setting": "12.5 mg BID, EoT, FAS", "value": "133.19 (14.86) mmHg"}, {"measurement": "Daytime Mean DBP (ABPM), Mean (SD)", "setting": "12.5 mg BID, EoT, FAS", "value": "79.69 (10.81) mmHg"}, {"measurement": "Daytime Mean SBP (ABPM), Mean (SD)", "setting": "12.5 mg BID, EoT, FAS", "value": "135.38 (14.97) mmHg"}, {"measurement": "Nighttime Mean DBP (ABPM), Mean (SD)", "setting": "12.5 mg BID, EoT, FAS", "value": "72.44 (12.25) mmHg"}, {"measurement": "Nighttime Mean SBP (ABPM), Mean (SD)", "setting": "12.5 mg BID, EoT, FAS", "value": "126.81 (16.69) mmHg"}, {"measurement": "Subjects with nighttime dip 10-20% in 24-hour systolic ABPM", "setting": "12.5 mg BID, EoT, FAS", "value": "5 (31.3) n (%)"}, {"measurement": "Subjects with nighttime dip <10% in 24-hour systolic ABPM", "setting": "12.5 mg BID, EoT, FAS", "value": "11 (68.8) n (%)"}, {"measurement": "Subjects with nighttime dip >20% in 24-hour systolic ABPM", "setting": "12.5 mg BID, EoT, FAS", "value": "0 n (%)"}, {"measurement": "24-hr Mean DBP (ABPM) CFB to EoT, Mean (SD)", "setting": "12.5 mg BID, FAS", "value": "−5.38 (8.59) mmHg"}, {"measurement": "24-hr Mean MAP (ABPM) CFB to EoT, Mean (SD)", "setting": "12.5 mg BID, FAS", "value": "−5.53 (10.63) mmHg"}, {"measurement": "24-hr Mean SBP (ABPM) CFB to EoT, Mean (SD)", "setting": "12.5 mg BID, FAS", "value": "−5.69 (12.90) mmHg"}, {"measurement": "Daytime Mean DBP (ABPM) CFB to EoT, Mean (SD)", "setting": "12.5 mg BID, FAS", "value": "−4.25 (9.64) mmHg"}, {"measurement": "Daytime Mean SBP (ABPM) CFB to EoT, Mean (SD)", "setting": "12.5 mg BID, FAS", "value": "−4.06 (14.48) mmHg"}, {"measurement": "Nighttime Mean DBP (ABPM) CFB to EoT, Mean (SD)", "setting": "12.5 mg BID, FAS", "value": "−6.00 (10.17) mmHg"}, {"measurement": "Nighttime Mean SBP (ABPM) CFB to EoT, Mean (SD)", "setting": "12.5 mg BID, FAS", "value": "−7.50 (16.17) mmHg"}, {"measurement": "LSM Δ with Placebo, 24-hr DBP (ABPM, ANCOVA)", "setting": "12.5 mg QD", "value": "−1.44", "unit": "mmHg"}, {"measurement": "LSM Δ with Placebo, 24-hr Mean MAP (ABPM, ANCOVA)", "setting": "12.5 mg QD", "value": "−1.62", "unit": "mmHg"}, {"measurement": "LSM Δ with Placebo, 24-hr SBP (ABPM, ANCOVA)", "setting": "12.5 mg QD", "value": "−1.5", "unit": "mmHg"}, {"measurement": "LSM Δ with Placebo, Daytime Mean DBP (ABPM, ANCOVA)", "setting": "12.5 mg QD", "value": "−2.47", "unit": "mmHg"}, {"measurement": "LSM Δ with Placebo, Daytime Mean SBP (ABPM, ANCOVA)", "setting": "12.5 mg QD", "value": "−2.14", "unit": "mmHg"}, {"measurement": "LSM Δ with Placebo, Mean Central DBP (ABPM, ANCOVA)", "setting": "12.5 mg QD", "value": "−1.29", "unit": "mmHg"}, {"measurement": "LSM Δ with Placebo, Mean Central Mean BP (ABPM, ANCOVA)", "setting": "12.5 mg QD", "value": 0.06, "unit": "mmHg"}, {"measurement": "LSM Δ with Placebo, Mean Central SBP (ABPM, ANCOVA)", "setting": "12.5 mg QD", "value": 1.92, "unit": "mmHg"}, {"measurement": "LSM Δ with Placebo, Nighttime Mean DBP (ABPM, ANCOVA)", "setting": "12.5 mg QD", "value": "−1.53", "unit": "mmHg"}, {"measurement": "LSM Δ with Placebo, Nighttime Mean SBP (ABPM, ANCOVA)", "setting": "12.5 mg QD", "value": "−0.21", "unit": "mmHg"}, {"measurement": "24-hr Mean DBP (ABPM), Mean (SD)", "setting": "12.5 mg QD, EoT, FAS", "value": "79.93 (7.33) mmHg"}, {"measurement": "24-hr Mean MAP (ABPM), Mean (SD)", "setting": "12.5 mg QD, EoT, FAS", "value": "109.47 (10.81) mmHg"}, {"measurement": "24-hr Mean SBP (ABPM), Mean (SD)", "setting": "12.5 mg QD, EoT, FAS", "value": "139.00 (16.31) mmHg"}, {"measurement": "Daytime Mean DBP (ABPM), Mean (SD)", "setting": "12.5 mg QD, EoT, FAS", "value": "81.53 (6.79) mmHg"}]}]}
